From patent US20150141411A1, “SUBSTITUTED 3,4-DIHYDRO-2H-PYRIDO[1,2-A]PYRAZINE-1,6-DIONE DERIVATIVES USEFUL FOR THE TREATMENT OF (INTER ALIA) ALZHEIMER'S DISEASE” (Janssen Pharmaceuticals, Inc., priority 2012, published 2015)

How the values were obtained:
Aβ42 = assay: In vivo efficacy: brain soluble Aβ42 in non-transgenic rodents (ELISA); settings: Mus musculus, dose 30 mg/kg oral dosing, brain soluble fraction, animals sacrificed after 4 h, untreated animals (Ctrl) set at 100, read-out: Aβ42 (% vs Ctrl)_Mean
Text: (§1) To determine whether acute administration of an Aβ42 lowering agent would reduce Aβ42 levels in vivo, non-transgenic rodents, e.g. mice or rats were used. Animals treated with the Aβ42 lowering agent were examined and compared to those untreated or treated with vehicle and brain levels of soluble Aβ42 and total Aβ were quantitated by standard techniques, for example, using ELISA. Treatment periods varied from hours (h) to days and were adjusted based on the results of the Aβ42 lowering once a time course of onset of effect could be established.
(§2) A typical protocol for measuring Aβ42 lowering in vivo is shown but it is only one of many variations that could be used to optimize the levels of detectable Aβ. For example, Aβ42 lowering compounds were formulated in 20% of Captisol® (a sulfobutyl ether of β-cyclodextrin) in water or 20% hydroxypropyl β cyclodextrin. The Aβ42 lowering agents were administered as a single oral dose or by any acceptable route of administration to overnight fasted animals. After 4 h, the animals were sacrificed and Aβ42 levels were analysed.
(§3) Blood was collected by decapitation and exsanguinations in EDTA-treated collection tubes. Blood was centrifuged at 1900 g for 10 minutes (min) at 4° C. and the plasma recovered and flash frozen for later analysis. The brain was removed from the cranium and hindbrain. The cerebellum was removed and the left and right hemisphere were separated. The left hemisphere was stored at −18° C. for quantitative analysis of test compound levels. The right hemisphere was rinsed with phosphate-buffered saline (PBS) buffer and immediately frozen on dry ice and stored at −80° C. until homogenization for biochemical assays.
(§4) Mouse brains from non-transgenic animals were resuspended in 8 volumes of 0.4% DEA (diethylamine)/50 mM NaCl containing protease inhibitors (Roche-11873580001 or 04693159001) per gram of tissue, e.g. for 0.158 g brain, add 1.264 ml of 0.4% DEA. All samples were homogenized in the FastPrep-24 system (MP Biomedicals) using lysing matrix D (MPBio #6913-100) at 6 m/s for 20 seconds. Homogenates were centrifuged at 221.300×g for 50 min. The resulting high speed supernatants were then transferred to fresh eppendorf tubes. Nine parts of supernatant were neutralized with 1 part 0.5 M Tris-HCl pH 6.8 and used to quantify Aβtotal and Aβ42.
(§5) To quantify the amount of Aβtotal and Aβ42 in the soluble fraction of the brain homogenates, Enzyme-Linked-Immunosorbent-Assays were used. Briefly, the standards (a dilution of synthetic Aβ1-40 and Aβ1-42, Bachem) were prepared in 1.5 ml Eppendorf tube in Ultraculture, with final concentrations ranging from 10000 to 0.3 pg/ml. The samples and standards were co-incubated with HRPO-labelled N-terminal antibody for Aβ42 detection and with the biotinylated mid-domain antibody 4G8 for Aβtotal detection. 50 μl of conjugate/sample or conjugate/standards mixtures were then added to the antibody-coated plate (the capture antibodies selectively recognize the C-terminal end of Aβ42, antibody JRF/cAβ42/26, for Aβ42 detection and the N-terminus of Aβ, antibody JRF/rAβ/2, for Aβtotal detection). The plate was allowed to incubate overnight at 4° C. in order to allow formation of the antibody-amyloid complex. Following this incubation and subsequent wash steps the ELISA for Aβ42 quantification was finished by addition of Quanta Blu fluorogenic peroxidase substrate according to the manufacturer's instructions (Pierce Corp., Rockford, Ill.). A reading was performed after 10 to 15 min (excitation 320 nm/emission 420 nm).
In this model a Aβ42 lowering compared to untreated animals would be advantageous, in particular a Aβ42 lowering with at least 10%, more in particular a Aβ42 lowering with at least 20%.
The results are shown in Table 4 (dose 30 mg/kg oral dosing) (value for untreated animals as control (Ctrl) was set at 100): […]

Aβtotal = assay: In vivo efficacy: brain soluble Aβtotal in non-transgenic rodents (ELISA); settings: Mus musculus, dose 30 mg/kg oral dosing, brain soluble fraction, animals sacrificed after 4 h, untreated animals (Ctrl) set at 100, read-out: Aβtotal (% vs Ctrl)_Mean
Text: as §1, §2, §3, §4, §5
For Aβtotal detection, a Streptavidine-Peroxidase-Conjugate was added, followed 60 min later by an additional wash step and addition of Quanta Blu fluorogenic peroxidase substrate according to the manufacturer's instructions (Pierce Corp., Rockford, Ill.). A reading was performed after 10 to 15 min (excitation 320 nm/emission 420 nm). […]

Compound	response vs control in vivo at 30 mg/kg (Aβ42) [%]	response vs control in vivo at 30 mg/kg (Aβtotal) [%]	melting point [°C]
Cc1cn(-c2ccc3n(c2=O)CCN(C(C)c2cccc(Cl)c2Cl)C3=O)cn1 (single isomer, unassigned) [10a]	87	118	203.8
Cc1cn(-c2ccc3n(c2=O)CC(C)N(C(C)c2cc(C(F)(F)F)cc(C(F)(F)F)c2)C3=O)cn1.Cl (single isomer, unassigned) [compound 111]	–	–	147.3
Cc1cn(-c2ccc3n(c2=O)CC(C)N(C(C)c2cc(C(F)(F)F)cc(C(F)(F)F)c2)C3=O)cn1.Cl (single isomer, unassigned) [compound 112]	–	–	259
Cc1cn(-c2ccc3n(c2=O)CCN(C(C)c2cn(C)c4cc(F)c(Cl)cc24)C3=O)cn1 (single isomer, unassigned) [compound 185]	–	–	258
Cc1cn(-c2ccc3n(c2=O)CC(C)N(C(C)c2cn(C)c4cc(F)c(Cl)cc24)C3=O)cn1 (single isomer, unassigned) [compound 189]	–	–	263
Cc1cn(-c2ccc3n(c2=O)CC(C)N(C(C)c2c[nH]c4c(F)cc(Cl)cc24)C3=O)cn1 (single isomer, unassigned) [compound 219]	–	–	263
CCC1Cn2c(ccc(-n3cnc(C)c3)c2=O)C(=O)N1Cc1cc(C(F)(F)F)cc(C(F)(F)F)c1.Cl (centres unmarked) [compound 1]	61	89	203.6
Cc1cn(-c2ccc3n(c2=O)C[C@@H](C)N(Cc2ccc(Cl)c(Cl)c2)C3=O)cn1 [compound 2]	82	100	185
Cc1cn(-c2ccc3n(c2=O)CC(C)N(Cc2cc(C(F)(F)F)cc(C(F)(F)F)c2)C3=O)cn1 (centres unmarked) [compound 3]	55	98	176.6
Cc1cn(-c2ccc3n(c2=O)CCN(Cc2cccc(-c4ccccc4)c2)C3=O)cn1 [compound 5]	78	87	165.6
Cc1cn(-c2ccc3n(c2=O)CC(C)N(Cc2cc(OCC4CC4)cc(C(F)(F)F)c2)C3=O)cn1.Cl (centres unmarked) [compound 6]	85	102	175.4
CCc1cn(-c2ccc3n(c2=O)CC(C)N(Cc2cc(C(F)(F)F)cc(C(F)(F)F)c2)C3=O)cn1.Cl (centres unmarked) [compound 7]	73	94	290
Cc1cn(-c2ccc3n(c2=O)CCN(Cc2ccccc2C)C3=O)cn1 [compound 22]	106	92	186.1
Cc1cn(-c2ccc3n(c2=O)C[C@@H](C)N(Cc2cccc(C(C)(C)C)c2)C3=O)cn1 [compound 23]	122	122	–
Cc1cn(-c2ccc3n(c2=O)C[C@@H](C)N(Cc2ccc(C(F)(F)F)c(C(F)(F)F)c2)C3=O)cn1 [compound 46]	60	87	145.6
Cc1cn(-c2ccc3n(c2=O)C[C@@H](C)N(CCc2cc(C(F)(F)F)cc(C(F)(F)F)c2)C3=O)cn1 [compound 50]	88	91	–
Cc1cc(CN2C(=O)c3ccc(-n4cnc(C)c4)c(=O)n3C[C@H]2C)cc(C(F)(F)F)c1 [compound 59]	82	126	167.7
Cc1cn(-c2ccc3n(c2=O)C[C@@H](C)N(Cc2ccc(Cl)c(C(F)(F)F)c2)C3=O)cn1 [compound 62]	68	98	–
Cc1cn(-c2ccc3n(c2=O)C[C@@H](C)N(Cc2cc(Cl)cc(C(F)(F)F)c2)C3=O)cn1 [compound 63]	82	124	180.4
Cc1cn(-c2ccc3n(c2=O)CCN(Cc2ccc(Cl)c(C(F)(F)F)c2)C3=O)cn1 [compound 65]	104	114	195.1
Cc1cn(-c2ccc3n(c2=O)C[C@@H](C)N(Cc2cc(N4CCC(C)CC4)ccc2Cl)C3=O)cn1 [compound 80]	119	119	–
Cc1cn(-c2ccc3n(c2=O)C[C@@H](C)N(Cc2cc(N4CCCC4)ccc2Cl)C3=O)cn1 [compound 82]	78	125	–
Cc1cn(-c2ccc3n(c2=O)CCN(Cc2ccc(C)c(N4CCCCC4)c2)C3=O)cn1 [compound 99]	111	113	–
C[C@@H]1Cn2c(ccc(-n3cnc(Cl)c3)c2=O)C(=O)N1Cc1cc(C(F)(F)F)cc(C(F)(F)F)c1 [compound 118]	–	–	157.9
Cc1cn(-c2ccc3n(c2=O)C[C@@H](C)N(Cc2ccc(F)c(F)c2)C3=O)cn1 [compound 133]	–	–	198.1
Cc1cn(-c2cc(F)c3n(c2=O)C[C@@H](C)N(Cc2cc(C(F)(F)F)cc(C(F)(F)F)c2)C3=O)cn1 [compound 158]	–	–	137.1
